The record followed here is publication PMC8468449 (2021).

Experiment [1] relates to 27-mer adenosine aptamer (DNA, aptamer) ACCTGGGGGAGTATTGCGGAGGAAGGT
The experiment can be described thus: CNT FET aptasensor, Hill-Langmuir fit. As to conditions: no added salt stated; 2 mM Tris-HCl, pH 7.4; Hill n 0.6 ± 0.08; immobilised aptamer.

Experiment [2] has as its system 35-mer adenosine aptamer (DNA, aptamer) AAAAAAAAAACCTGGGGGAGTATTGCGGAGGAAGG
The experiment can be described thus: CNT FET aptasensor, Hill-Langmuir fit. The settings on record: no added salt stated; 2 mM Tris-HCl, pH 7.4; Hill n 0.2 ± 0.03; immobilised aptamer.

In the case of `Nc1ncnc2c1ncn2[C@@H]1O[C@H](CO)[C@@H](O)[C@H]1O`, the Kd entry was “(1.6 ± 1.4) × 10^−7 M” in experiment [1] and “(1.2 ± 1.08) × 10^−9 M” in experiment [2].
